Test results from patent US8507463B2, “Nucleotide analogue prodrug and the preparation thereof” (Jiangsu Chia Tai Tianqing Pharmaceutical Co., Ltd., priority 2005, dated 2013).
Where two headings read alike, the source gives them in different places.

What was measured:
[1] = test system: BEAGLE dogs; assay: Long term toxicity test (kidney function); type: in vivo; conditions: 6 months
Description: BEAGLE dogs as animal models, Adefovir Dipivoxil as control sample, long term toxicity of TD crystalline form A was investigated, especially the effects of TD crystalline form A on kidney function was investigated.
30 BEAGLE dogs were randomly divided into 5 groups, 6 dogs per group. One group as blank control group, three groups as low dosing, medium dosing and high dosing group of TD crystalline form A respectively. The dosage of low dosing group was 5 mg/kg once per day, the dosage of medium dosing group was 15 mg/kg once per day and the dosage of high dosing group was 45 mg/kg once per day. The remaining group was Adefovir Dipivoxil control group, dosed at 40 mg/kg once per day.
Drugs mixed with salad oil were administered to the animals for 6 months consecutively, then observed for 21 consecutive days after drug withdrawal.

[2] = test system: Duck Hepatitis B Virus; assay: Anti-viral (anti-HBV) test in vivo, DHBV-DNA level by PCR; design: species or system GaoYou pockmark ducks; conditions: ducks, 15 mg/ml group, once a day; day 0 level as base line of 100
Description: Two-month old pockmark ducks vertically infected with Duck Hepatitis B Virus were selected as animal models to conduct anti-HBV test in vivo, the efficacy was investigated. 80 GaoYou pockmark ducks were divided randomly into. 8 groups, 10 ducks per groups, three groups were given TD fumarate at the dosage of 5, 15, 45 mg/kg once a day respectively, other three groups were given Tenofovir Disoproxil Fumarate at the dosage of 5, 15, 45 mg/kg once a day respectively, other one group was given Adefovir Dipivoxil at the dosage of 15 mg/kg once a day and the remaining group was blank control group. All the groups were administered for 28 days, and blood samples were taken every 7 days to determine the inhibitory effect to the DHBV-DNA level by PCR, inhibition rate was listed in the following table.

[3] = human, cited from earlier work
[4] = type: physicochemical
[5] = Light exposure test (4500±500 Lx); type: physicochemical; conditions: light 4500±500 Lx
From the text: Samples were evenly spread out and placed in open culture dishes and the thickness thereof was less than 5 mm, then distances were adjusted until the illumination intensity was 4500±500 Lx, samples were taken on the fifth and tenth day respectively for determination, compared with the result of day 0, results were listed in the table below: […]

[6] = High temperature test (60° C.); type: physicochemical; conditions: sealed ampoules
Description: Samples were sealed in clean glass ampoules and put in 60° C. thermostatic drying chamber, then they were taken on the fifth and tenth day respectively for determination, compared with the result of day 0, results were listed in the table below:
Samples were sealed in clean glass ampoules and put in 60° C. thermostatic drying chamber, then they were taken on the fifth and tenth day respectively for determination, compared with the result of day 0, results were listed in the table below

[7] = High humidity test (room temperature, relative humidity 75±5%); type: physicochemical; conditions: 25° C.
Description: Samples were evenly spread out and placed in open culture dishes, wherein the thickness thereof was less than 5 mm, put in a thermostatic drying chamber at room temperature (25° C.) with relative humidity of 75±5%. Then the samples were taken on the fifth and tenth day respectively for determination, compared with the result of day 0, results were listed in the table below

[8] = Acceleration test (40° C., relative humidity 75%); type: physicochemical
Description: Samples were sealed with polyethylene plastic bags, placed in the thermostatic drying chamber at 40±2° C. with relative humidity of 75±5% for 3 months. Then the samples were taken at the end of the first, second and third month respectively for determination, compared with the result of day 0, results were listed in the table below: […]

[9] = Stability analysis, overall conclusion in words; type: physicochemical; conditions: from light, high temperature, high humidity and acceleration tests
[10] = Acute toxicity test, median lethal dose (LD50); conditions: both sexes, mouse, in vivo, oral, mice, infused into the stomach, observed 14 days
Description: TD fumarate and TD crystalline form A were dissolved in 0.1M citric acid aqueous solution respectively, 140 healthy mice with 18˜22 g body-weight was selected, randomly divided into 14 groups, 10 per group, and the number of male and female mice were equal.
Following the preliminary test, TD fumarate and TD crystalline form A were administered to 7 different dosing groups by infusing into the stomach, observed for 14 days consecutively to investigate the toxic reaction and death cases of mice and then LD50 was calculated.

[11] = BEAGLE dogs, 40 mg/kg once per day

For CC(C)(C)C(=O)OCOP(=O)(COCCn1cnc2c(N)ncnc21)OCOC(=O)C(C)(C)C [Adefovir Dipivoxil], the “levels of serum carnine and urea nitrogen, in words” value [1, 11] was “significantly higher”, the “urea nitrogen” value [1, 11] was 24.7 ± 1.35 mmol/L and the “DHBV-DNA level, First week” value [2] was 85 ± 7. The “DHBV-DNA level, Fourth week” value [2] was 33 ± 6, the “DHBV-DNA level, Second week” value [2] was 70 ± 6 and the “DHBV-DNA level, Third week” value [2] was 55 ± 7. The “adverse reaction and renal dysfunction” value ([3]; 50 mg/day and 30 mg/day) was “higher incidence” and the “nephrotoxicity in clinical trials” value ([3]; recent clinical trials) was “observed”.
For C[C@H](Cn1cnc2c(N)ncnc21)OCP(=O)(OCOC(=O)C(C)(C)C)OCOC(=O)C(C)(C)C [TD crystalline form A, 9-[2-(R)-[bis[pivaloyloxymethoxy]-phosphinylmethoxy]propyl]adenine], the “solubility conclusion, 0.1N HCl” value ([4]; 0.1N HCl) was “soluble”, the “solubility conclusion, 0.1N NaOH” value ([4]; 0.1N NaOH) was “slightly” and the “solubility conclusion, anhydrous ethanol” value ([4]; anhydrous ethanol) was “freely soluble”. The “solubility conclusion, methanol” value ([4]; methanol) was “freely soluble”, the “amount of solvent (ml), 0.1N HCl” value ([4]; to dissolve 1 g of sample, 0.1N HCl) was 33.5 mL and the “amount of solvent (ml), 0.1N NaOH” value ([4]; to dissolve 1 g of sample, 0.1N NaOH) was 910 mL. For the same compound, the “amount of solvent (ml), anhydrous ethanol” value ([4]; to dissolve 1 g of sample, anhydrous ethanol) was 5.0 mL, the “amount of solvent (ml), methanol” value ([4]; to dissolve 1 g of sample, methanol) was 1.4 mL and the “amount of solvent (ml), water” value ([4]; to dissolve 1 g of sample, water) was 880 mL. The “solubility conclusion, water” value ([4]; water) was “soluble”, the “content (%)” value ([5]; day 0) was 98.7% and the “content (%)” value ([5]; day 5) was 98.3%. The “content (%)” value ([5]; day 10) was 98.5%, the “content (%)” value ([6]; day 0) was 99.1% and the “content (%)” value ([6]; day 5) was 98.6%. For the same compound, the “content (%)” value ([6]; day 10) was 98.4%, the “content (%)” value ([7]; day 0) was 99.7% and the “Weight gain after moisture absorption (%)” value ([7]; day 5) was 4.3%. For the same compound, the “content (%)” value ([7]; day 5) was 98.5%, the “Weight gain after moisture absorption (%)” value ([7]; day 10) was 5.6% and the “content (%)” value ([7]; day 10) was 97.2%. For the same compound, the “content (%)” value ([8]; end of month 1) was 93.1%, the “content (%)” value ([8]; end of month 2) was 90.5% and the “content (%)” value ([8]; end of month 3) was 86.3%. For the same compound, the “content (%)” value ([8]; month 0) was 99.7%, the “stability, overall conclusion in words” value [9] was “good stabilities” and the LD50 at 14 days ([10]; read-out: LD50) was 4310 mg/kg. For the same compound, the LD50 at 14 days ([10]; read-out: LD50, 95% confident limit) was 2830 to 5440 mg/kg, the “urea nitrogen” value ([1]; BEAGLE dogs, 5 mg/kg once per day) was 17.1 ± 1.32 mmol/L and the “urea nitrogen” value ([1]; BEAGLE dogs, 15 mg/kg once per day) was 14.2 ± 1.20 mmol/L. For the same compound, the “urea nitrogen” value ([1]; BEAGLE dogs, 45 mg/kg once per day) was 15.7 ± 1.08 mmol/L and the “hematological, blood and urine biochemical parameters versus blank control group, in words” value ([1]; BEAGLE dogs, 5, 15 and 45 mg/kg once per day) was “no significant differences”.
